Measured values from ChEMBL document CHEMBL2380234, “Natural sesquiterpene lactones as inhibitors of Myb-dependent gene expression: structure-activity relationships” (Eur J Med Chem, 2013).

Assay: Cytotoxicity against chicken HD11 cells assessed as cell viability after 24 hrs by MTS assay
Format: ADME, cell-based
Details: Gallus gallus, HD11, 24 h
In the case of `C=C1C(=O)O[C@@H]2/C=C(/C)[C@@H](OC(C)=O)C[C@H]3O[C@]3(O)C[C@@H](OC(=O)/C(C)=C\C)[C@@H]12`, the IC50 is reported as greater than 30 µM. In the case of `C=C1C(=O)O[C@H]2C[C@@H](C)[C@@H]3C=CC(=O)[C@@]3(C)[C@H](O)[C@H]12` [MEXICANIN I], the IC50 is reported as 21.1 µM. Work on `C=C1C(=O)O[C@@H]2/C=C(/C)[C@@H](O)C/C=C(\C)C[C@H](OC(=O)/C(C)=C\C)[C@@H]12` [NOBILIN] yielded an IC50 greater than 30 µM. Work on `C=C1C(=O)O[C@@H]2C[C@@]3(C)C[C@@H](O)CC(=C)[C@@H]3C[C@H]12` [IVALIN] yielded an IC50 greater than 30 µM. With `C=C1C(=O)O[C@@H]2C[C@H](C)[C@]3(O)CCC(=O)[C@@]3(C)C[C@H]12` [PERUVIN] the IC50 was greater than 30 µM. Molecule `C=C1C[C@H](O)C[C@]2(C)C[C@H]3OC(=O)[C@@H](C)[C@H]3C[C@@H]12` has an IC50 greater than 30 µM. With `C=C1C(=O)O[C@@H]2C[C@@H](C)[C@@H]3[C@@H](O)CC(=O)[C@@]3(C)[C@@H](OC(=O)/C(C)=C/C)[C@H]12` [ARNIFOLIN] the IC50 was greater than 30 µM. In the case of `C=C1C(=O)O[C@@H]2C[C@@H](C)[C@@H]3[C@@H](OC(C)=O)C[C@@H](OC(C)=O)[C@@]3(C)C[C@H]12`, the IC50 is reported as greater than 30 µM. For `C=C1C[C@H]2OC(=O)C(=C)[C@@H]2[C@H](OC(=O)C(C)C)C[C@@]2(C)OC1=CC2=O`, the IC50 was 25.2 µM. In the case of `C=C1C(=O)O[C@@H]2C[C@H](C)[C@@]3(O)C=C(C(C)=O)[C@@]4(O[C@@H]3C[C@H]12)C(=O)O[C@H]1C[C@@H](C)C(/C=C/C(C)=O)=CC[C@H]14`, the IC50 is reported as greater than 30 µM. For `C=C1C(=O)O[C@@H]2/C=C(\C)CC[C@H]3O[C@]3(COC(C)=O)C[C@@H](OC(=O)C3(C)OC3C)[C@@H]12` (stereo partly drawn), the IC50 was 25.5 µM. Work on `C=C1C(=O)O[C@@H]2/C=C(\C)CC[C@H]3O[C@]3(CO)C[C@@H](OC(=O)C3(C)OC3C)[C@@H]12` (stereo partly drawn) yielded an IC50 greater than 30 µM. `C/C1=C\CC[C@@]2(C)O[C@@H]2[C@H]2OC(=O)[C@@H](C)[C@@H]2CC1` [11BETA,13-DIHYDRO-PARTHENOLIDE] showed an IC50 greater than 30 µM. For `C=C1C(=O)O[C@H]2C[C@H](C)[C@@H]3CC[C@@]4(C)O[C@@]34C[C@H]12`, the IC50 was greater than 30 µM. Work on `C=C1C(=O)O[C@H]2[C@H]1[C@H](OC(=O)[C@@]1(C)O[C@H]1C)[C@@H](OC(C)=O)/C(C(=O)OC)=C\CC[C@@]1(C)O[C@H]21` [ENHYDRIN] yielded an IC50 of 7.49 µM. Work on `C=C1C(=O)O[C@@H]2[C@H]3O[C@]3(C)CC/C=C(\C)[C@@H](OC(=O)CC(C)(C)O)C[C@@H]12` yielded an IC50 greater than 30 µM. Molecule `C=C1C(=O)O[C@@H]2/C=C(/CO)C[C@H](O)/C=C(/C(=O)OC)[C@@H](OC(C)=O)[C@@H](OC(=O)C(C)C)[C@@H]12` has an IC50 of 24.8 µM. For `C=C1C(=O)O[C@@H]2[C@H]3C(C)=CC[C@H](O)[C@]3(C)CC[C@@H]12` [DOUGLANIN], the IC50 was greater than 30 µM. `C=C1C(=O)O[C@@H]2/C=C(/C)[C@@H](O)C[C@H]3O[C@]3(C)C[C@@H](OC(=O)/C(C)=C\C)[C@@H]12` [EPOXYNOBILIN] gave an IC50 greater than 30 µM. `C=C1C(=O)O[C@@H]2[C@H]3C(C)=CC[C@@]34O[C@@]4(C)CC[C@@H]12` [ARGLABIN] showed an IC50 greater than 30 µM. With `C=C(C)C(=O)O[C@H]1C[C@@]2(C)OC(=CC2=O)/C(CO)=C\[C@H]2OC(=O)C(=C)[C@H]12` [GOIAZENSOLIDE] the IC50 was 10.1 µM. With `C=C1C(=O)O[C@H]2[C@H]1[C@H](OC(=O)[C@]1(C)O[C@@H]1C)[C@@H](OC(C)=O)/C(C(=O)OC)=C\C=C/[C@@]1(C)O[C@H]21` the IC50 was 28 µM. Molecule `C=C1C(=O)O[C@@H]2C[C@@H](C)[C@@H]3[C@@H](OC(C)=O)C[C@@H](O)[C@@]3(OC(C)=O)C[C@H]12` has an IC50 greater than 30 µM. `CC(=O)O[C@H]1[C@@H]2[C@H](C)C(=O)O[C@@H]2C[C@@H](C)[C@@H]2C=CC(=O)[C@]21C` showed an IC50 of 21 µM. In the case of `C=C1C(=O)O[C@@H]2C[C@@H](C)[C@@H]3C=CC(=O)[C@@]3(C)[C@@H](OC(=O)C(C)C)[C@H]12` [HELENALINISOBUTYRATE], the IC50 is reported as greater than 30 µM. In the case of `C=C1C(=O)O[C@@H]2C[C@@H](C)[C@@H]3[C@@H](O)C[C@@H](O)[C@@]3(C)C[C@H]12`, the IC50 is reported as greater than 30 µM. For `C=C1C(=O)O[C@@H]2[C@H]3O[C@]3(C)CC/C=C(\C)[C@@H](OC(=O)C(C)C(C)O)C[C@@H]12` (stereo partly drawn), the IC50 was greater than 30 µM. With `C=C1C(=O)O[C@@H]2/C=C(/C)C(=O)/C=C/[C@](C)(O)C[C@@H](OC(=O)C(C)C)[C@@H]12` [TAGITININ C] the IC50 was 30.9 µM. With `C=C1C(=O)O[C@@H]2C[C@@H](C)C(=O)C/C=C(\C)CC[C@@H]12` [ARGOLIDE] the IC50 was greater than 30 µM. With `C=C1C(=O)O[C@@H]2C[C@@H](C)[C@@H]3CCC(=O)[C@@]3(C)C[C@H]12` the IC50 was greater than 30 µM. In the case of `C=C1C(=O)O[C@@H]2C[C@H](C)[C@]3(/C=C/C(C)=O)O[C@@H]3C[C@H]12`, the IC50 is reported as greater than 30 µM. In the case of `C=C1C(=O)O[C@@H]2/C=C(/CO)C3=CC(=O)[C@@](C)(C[C@@H](OC(=O)/C(C)=C/C)[C@@H]12)O3` [BUDLEIN A], the IC50 is reported as 9 µM. Molecule `C=C1C(=O)O[C@@H]2C[C@H](C)C(/C=C/C(C)=O)=CC[C@H]12` has an IC50 greater than 30 µM. In the case of `C=C1C(=O)O[C@@H]2/C=C(\CO)CC/C=C(\C)C[C@H](OC(=O)C(=C)[C@H](O)CO)[C@@H]12` [CNICIN], the IC50 is reported as greater than 30 µM. In the case of `C=C1C(=O)O[C@@H]2C[C@@]3(C)CC(=O)C[C@H](C)C3=C[C@H]12` [2-OXOALANTOLACTONE], the IC50 is reported as greater than 30 µM. In the case of `C=C1C(=O)O[C@@H]2/C=C(\C)CC/C=C(\C)CC[C@@H]12` [COSTUNOLIDE], the IC50 is reported as greater than 30 µM. Work on `C=C(C)C(=O)O[C@@H]1C[C@@]2(C)OC(=CC2=O)C(=C)C[C@H]2OC(=O)C(=C)[C@H]12` yielded an IC50 of 10.4 µM. In the case of `C=C1C[C@H]2OC(=O)C(=C)[C@@H]2[C@H](OC(=O)/C(C)=C/C)C[C@@]2(C)OC1=CC2=O`, the IC50 is reported as 12.1 µM. Work on `C=C1C(=O)O[C@@H]2[C@H]1CC[C@H](C)[C@]1(CCC(=O)O1)[C@@]2(C)O` [PSILOSTACHYIN A] yielded an IC50 greater than 30 µM. `C=C1C(=O)O[C@@H]2C[C@@H](C)[C@@H]3C=CC(=O)[C@@]3(C)[C@@H](O)[C@H]12` [HELENALIN] gave an IC50 of 21.1 µM. In the case of `C=C1C(=O)O[C@@H]2/C=C(\C)CC/C=C(/C(=O)OC)[C@H](OC(C)=O)[C@@H](OC(=O)C(C)(O)C(C)O)[C@@H]12` (stereo partly drawn), the IC50 is reported as greater than 30 µM. With `C=C1C(=O)O[C@@H]2C[C@@H](C)[C@@H]3[C@@H](O)C[C@@H](OC(=O)/C(C)=C/C)[C@@]3(C)[C@@H](O)[C@H]12` the IC50 was greater than 30 µM. For `C=C1C(=O)O[C@@H]2C[C@@]3(C)CCC[C@H](C)C3=C[C@H]12` [HELENINE], the IC50 was greater than 30 µM. For `C=C1C(=O)O[C@@H]2C[C@@H](C)[C@@H]3[C@@H](OC(C)=O)C[C@@H](O)[C@@]3(C)C[C@H]12`, the IC50 was greater than 30 µM. `C=C1C(=O)O[C@@H]2/C=C(\C)CC/C=C(/C(=O)OC)[C@H](OC(C)=O)[C@@H](OC(=O)[C@]3(C)O[C@@H]3C)[C@@H]12` [UVEDALIN] showed an IC50 of 11.4 µM. With `C=C1C(=O)O[C@@H]2C[C@@H](C)[C@@H]3[C@@H](OC(C)=O)C[C@@H](O)[C@@]3(C)[C@@H](O)[C@H]12` [CHAMISSONOLIDE] the IC50 was greater than 30 µM. With `C=C1C(=O)O[C@@H]2/C=C(/C)[C@@H](O)C[C@H]3O[C@]3(COC(C)=O)C[C@@H](OC(=O)/C(C)=C\C)[C@@H]12` [ROTUNDIN] the IC50 was greater than 30 µM. Molecule `C=C(CO)C(=O)O[C@H]1C/C(C)=C\CC/C(CO)=C\[C@H]2OC(=O)C(=C)[C@H]12` [ONOPORDOPICRIN] has an IC50 greater than 30 µM. `C=C1C(=O)O[C@@H]2C[C@H](C)[C@@]3(O)C=C(C(C)=O)[C@@]4(O[C@@H]3C[C@H]12)C(=O)O[C@H]1C[C@@H](C)[C@]2(/C=C/C(C)=O)O[C@@H]2C[C@H]14` showed an IC50 greater than 30 µM. `C=C1C(=O)O[C@@H]2[C@H]3O[C@]3(C)CC/C=C(\C)[C@@H](OC(=O)CC3(C)OC3C)C[C@@H]12` (stereo partly drawn) showed an IC50 of 22.2 µM. With `C=C1C(=O)O[C@H]2[C@H]1[C@H](OC(C)=O)C/C(C)=C/CC[C@@]1(C)O[C@@H]21` the IC50 was greater than 30 µM. Molecule `C=C1C(=O)O[C@@H]2C[C@@]3(C)CCCC(=C)[C@@H]3C[C@H]12` [ISOALANTOLACTONE] has an IC50 greater than 30 µM. In the case of `C=C1C(=O)O[C@@H]2C[C@@H](C)[C@@H]3C=CC(=O)[C@@]3(C)[C@@H](OC(C)=O)[C@H]12` [ANGUSTIBALIN], the IC50 is reported as 7.34 µM. `C=C1CC[C@H]2C(=C)CC[C@H]3C(=C)C(=O)O[C@@H]3[C@@H]12` [DEHYDROCOSTUSLACTONE] showed an IC50 greater than 30 µM. Molecule `C=C1C(=O)O[C@@H]2C3O[C@]3(C)CC/C=C(\C)CC[C@@H]12` (stereo partly drawn) has an IC50 greater than 30 µM. `C=C1C(=O)O[C@@H]2C[C@]3(C)[C@@H](CCC(C)=O)[C@]3(C)C[C@H]12` [CARABRONE] gave an IC50 greater than 30 µM. Work on `CC(C)CC(=O)O[C@H]1[C@@H]2[C@H](C)C(=O)O[C@@H]2C[C@@H](C)[C@@H]2C=CC(=O)[C@]21C` yielded an IC50 greater than 30 µM. With `C=C1C(=O)O[C@@H]2C[C@@H](C)[C@@H]3[C@@H](OC(C)=O)C[C@@H](OC(C)=O)[C@@]3(C)[C@@H](OC(C)=O)[C@H]12` the IC50 was greater than 30 µM.
